{"source": "patent US20170176475A1", "about": "“NOVEL METHODS AND KITS FOR DETECTING A RIFAMYCIN, OR DERIVATIVE OR ANALOGUE THEREOF” (DREXEL UNIVERSITY, priority 2014, published 2017)", "origin": "cited, not measured here", "data": [{"smiles": "CO[C@H]1/C=C/O[C@@]2(C)Oc3c(C)c(O)c4c(O)c(c(/C=N/N5CCN(C)CC5)c(O)c4c3C2=O)NC(=O)/C(C)=C\\C=C\\[C@H](C)[C@H](O)[C@@H](C)[C@@H](O)[C@@H](C)[C@H](OC(C)=O)[C@@H]1C", "note": "[rifampicin, (7S,9E,11S,12R,13S,14R,15R,16R,17S, 18S,19E,21Z)-2,15,17,27,29-pentahydroxy-11-methoxy-3,7,12,14,16,18,22-heptamethyl-26-{(E)-[(4-methylpiperazin-1-yl)imino]methyl}-6,23-dioxo-8,30-dioxa-24-azatetracyclo [23.3.1.1^4,7.0^5,28]triaconta-1(28),2,4,9,19,21,25(29),26-octaen-13-yl acetate]", "values": [{"measurement": "time by which nearly all the drug in the bile is present in the deacetylated form", "setting": "bile, normal metabolizing patients", "result": "≤ 6", "unit": "h"}, {"measurement": "time to peak plasma drug concentrations after intake", "setting": "orally administered", "result": "two to four"}]}]}
